Laboratory results published in the supplement of paper PMC10307832.

Key:
Test in all cases: relative viability (nuclei count vs DMSO), 5 days (fraction); higher = more cells survive
[1] = compound: CCn1c(-c2nonc2N)nc2c(C#CC(C)(C)O)ncc(OC[C@H]3CCCNC3)c21 + Nc1nc2[nH]cc(CCc3ccc(C(=O)N[C@@H](CCC(=O)O)C(=O)O)cc3)c2c(=O)[nH]1 [Pemetrexed] (partner 0.2 µM)
Procedure, shortened: (§1)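 Lung cancer cell lines, seeded in 1536-well plates, were treated the following day by pin tool with a single drug or with five library-drug doses (not always all listed) in √10 steps on top of a fixed anchor-drug dose. Cells were fixed and nuclei stained in one step after 5 days, and nuclei were counted. Relative viability is the nuclei count for treated wells divided by that for vehicle wells, reported as medians of duplicate plates.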

[2] = compound: CCOC1=CC=CC=C1N=NC2=C(NN(C2=O)C3=NC(=CS3)C4=CC=CC=C4)C [BAM7] + COc1cccc2cc(-c3nc([C@H]4CC[C@H](C(=O)O)CC4)n4ncnc(N)c34)[nH]c12 [OSI-027] (partner 0.5 µM)
Procedure, shortened: as §1

[3] = compound: CCn1c(-c2nonc2N)nc2c(C#CC(C)(C)O)ncc(OC[C@H]3CCCNC3)c21
Procedure, shortened: (§2)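 MetaXpress counted nuclei in 4× images of lung cancer cell lines that had been fixed, permeabilised and Hoechst-stained in one step. Before that, cells in 1536-well plates were kept overnight at 37 °C, pinned with five √10-spaced library-drug doses on vehicle-anchored plates, and cultured 5 days without medium change. Viability takes treated-well nuclei over vehicle-well nuclei and uses the median across plates. Plates were accepted only at control CV below 25% and at least one doubling.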

[4] = compound: CCOC1=CC=CC=C1N=NC2=C(NN(C2=O)C3=NC(=CS3)C4=CC=CC=C4)C [BAM7]
Procedure, shortened: as §2

PC-14
relative viability ([1]; first compound 0.01 µM): 0.127
relative viability ([1]; first compound 0.03162 µM): 0.126
relative viability ([1]; first compound 0.1 µM): 0.14
relative viability ([1]; first compound 0.3162 µM): 0.136
relative viability ([1]; first compound 1 µM): 0.147
relative viability ([2]; first compound 0.5 µM): 0.872
relative viability ([2]; first compound 5 µM): 0.898
relative viability ([2]; first compound 15.81 µM): 0.764
relative viability ([2]; first compound 50 µM): 0.926
relative viability ([3]; 0.01 µM): 0.937
relative viability ([3]; 0.03162 µM): 1
relative viability ([3]; 0.1 µM): 1.11
relative viability ([3]; 0.3162 µM): 0.954
relative viability ([3]; 1 µM): 1.03
relative viability ([4]; 0.5 µM): 1.04
relative viability ([4]; 5 µM): 1.06
relative viability ([4]; 15.81 µM): 1
relative viability ([4]; 50 µM): 1.01

RERF-LC-KJ
relative viability ([1]; first compound 0.01 µM): 0.486
relative viability ([1]; first compound 0.03162 µM): 0.442
relative viability ([1]; first compound 0.1 µM): 0.432
relative viability ([1]; first compound 0.3162 µM): 0.478
relative viability ([1]; first compound 1 µM): 0.488
relative viability ([2]; first compound 0.5 µM): 0.472
relative viability ([2]; first compound 5 µM): 0.422
relative viability ([2]; first compound 15.81 µM): 0.334
relative viability ([2]; first compound 50 µM): 0.404
relative viability ([3]; 0.01 µM): 0.959
relative viability ([3]; 0.03162 µM): 0.97
relative viability ([3]; 0.1 µM): 0.99
relative viability ([3]; 0.3162 µM): 0.966
relative viability ([3]; 1 µM): 1.05
relative viability ([4]; 0.5 µM): 0.94
relative viability ([4]; 5 µM): 0.913
relative viability ([4]; 15.81 µM): 0.745
relative viability ([4]; 50 µM): 0.812

SK-LU-1
relative viability ([1]; first compound 0.01 µM): 0.869
relative viability ([1]; first compound 0.03162 µM): 0.985
relative viability ([1]; first compound 0.1 µM): 0.823
relative viability ([1]; first compound 0.3162 µM): 0.929
relative viability ([1]; first compound 1 µM): 0.855
relative viability ([2]; first compound 0.5 µM): 0.33
relative viability ([2]; first compound 5 µM): 0.362
relative viability ([2]; first compound 15.81 µM): 0.345
relative viability ([2]; first compound 50 µM): 0.343
relative viability ([3]; 0.01 µM): 1.06
relative viability ([3]; 0.03162 µM): 1.09
relative viability ([3]; 0.1 µM): 0.88
relative viability ([3]; 0.3162 µM): 0.953
relative viability ([3]; 1 µM): 0.966
relative viability ([4]; 0.5 µM): 1.04
relative viability ([4]; 5 µM): 1.24
relative viability ([4]; 15.81 µM): 0.962
relative viability ([4]; 50 µM): 1.13
